The text below walks through data of US20170114128A1, “USE OF TGF-BETA ANTAGONISTS OF TREAT TYPE-2 DIABETES” (ALBERT EINSTEIN COLLEGE OF MEDICINE, INC., priority 2014, published 2017).

The assay relates to hypothalamic RNA SGs/PBs genes, IκBα mRNA, Pomc mRNA. The assay is described as follows: Hypothalamic mRNA levels and HuR immunostaining after third-ventricle TGF-β1. It is filed as in vivo, mice. From the text:
POMC neurons direct the pro-T2D effect of TGF-β excess: It was subsequently studied if hypothalamic neurons are critical for the pro-diabetic effects of brain TGF-β excess. […] It was studied if POMC neurons could be crucial for the pro-diabetic effect of brain TGF-β excess. […] To carry out this study, a genetic mouse model was generated with Tgfbr2 knockout specifically in POMC neurons by crossing Tgfbr2lox/lox mice with POMC-Cre mice. As a result, compound offspring POMC-Tgfbr2lox/lox mice were obtained and littermate control Tgfbr2lox/lox mice. These mice were maintained on normal chow feeding or 3-week HFD feeding. […] Taken together, the action of TGF-β in POMC neurons is important for the pro-diabetic effect of brain TGF-β excess. POMC-Cre can target other types of neurons during the developmental stage (34), thus, the pro-diabetic mechanism of TGF-β may involve additional hypothalamic or brain neurons.
Induction of hypothalamic RNA SGs/PBs by TGF-β or HFD: In exploring how TGF-β could activate hypothalamic NF-κB without requiring pro-inflammatory kinase signaling, attention was directed to a possible role from mRNA regulation. In coping with inflammatory stress, eukaryotic cells can develop a process known as RNA stress response which is characterized by RNA stress granules (SGs) and processing bodies (PBs) (36-38). In this reaction, messenger ribonuclear protein (mRNP) byproducts exit from polysomes and form RNA SGs at discrete cytoplasmic foci. RNA SGs primarily consist of poly(A)+mRNAs-containing 48S pre-initiation complexes, small ribosomal subunits, mRNA decay factor tristetraprolin (TTP), translation initiation factors such as eukaryotic translation initiation factor-4E (eIF4E), eIF4G, eIF4A, eIF4B, poly(A)-binding protein (PABP), and RNA helicases (36-38). RNA stress response can lead to the export of mRNPs into the PBs, a complex which harbors an array of mRNA decay machineries that act to dispose mRNAs from SGs or polysomes (36-38). PBs contain nontranslating mRNAs, translation repressors, mRNA decay machineries (including 5′-3′ mRNA decay system, nonsense-mediated decay pathway, and RNA-induced silencing complex), and mRNA decay factors such as TTP, eIF4E, DEAD box RNA helicase family member p54/RCK, […] (CPEB), B-related factor 1/RNA polymerase III transcription initiation factor IIIB subunit (BRF1), eukaryotic translation initiation factor 4E transporter (4-ET), and RNA-binding protein Smaug (36-38). […] In line with these observations, we examined if the morphology of RNA SGs could be detected in the hypothalamus of these mice. […] Consistently, these morphological changes were found in the hypothalamus of HFD-fed mice but almost not chow-fed mice (supplementary FIG. 6b). […]

Turning to “TGF-β1: transforming growth factor-β1 (Sigma), cytokine dissolved in artificial cerebrospinal fluid for third-ventricle injection”, for the setting “HuR immunostaining”, the “HuR-containing aggregates in perinuclear regions of hypothalamic cells” value is given as “present”. For the same substance, the “hypothalamic increases of RNA SGs/PBs genes” value (injection into the third ventricle of normal mice (4 ng), similar to 3-month HFD) is “similarly induced”. For the same substance, the “hypothalamic IκBα mRNA levels” value (intra-third ventricle injection (4 ng)) is “sufficient to decrease”. For the same substance, the “Pomc mRNA levels in the hypothalamus vs controls” value (mouse, in vivo) is reported as “lower”.
